Patent publication US20130317069A1, “2,4-(SUBSTITUTED AROMATIC)-1,3-OXAZOLINE COMPOUNDS AS A SEED TREATMENT TO CONTROL PESTS” (Dow Agrosciences LLC, priority 2012, published 2013)

Tests used:
[1] = test system: Spodoptera exigua (beet armyworm); experiment: Insecticidal activity on beet armyworm, treated lepidopteran diet; format: in vivo; details: 120 h, Rate 400 PPM, 250 μL test solution on diet surface, second-instar larvae, 5 days at 25° C., five insects per treatment
Procedure: (§1) Different 2,4-(substituted aromatic)-1,3-oxazoline compounds were tested for insecticidal activity on Spodoptera exigua (beet armyworm) and Myzus persicae (green peach aphid).
The different 2,4-(substituted aromatic)-1,3-oxazoline compounds used on Spodoptera exigua were formulated as test solutions. To prepare the test solutions, the different 2,4-(substituted aromatic)-1,3-oxazoline compounds were formulated at 400 PPM in 7.5 mL of 2:1 acetone:tap water solvent. 250 μL of each test solution was pipetted upon the surface of 8 mL of lepidopteran diet (modified Shorey) contained in each of five one-ounce plastic cups (one cup=1 replication). A second-instar beet armyworm was placed upon the treated diet in each cup once the solvent had air-dried. The cups containing the treated lepidopteran diet and the beet armyworms were capped and then held in a growth chamber at 25° C., 50-55% RH, and 14 hours light:10 hours dark for 5 days. The average % mortality was determined from the number of dead insects of five per treatments.

[2] = test system: Myzus persicae (green peach aphid); experiment: Insecticidal activity on green peach aphid, spray on infested cabbage leaves; format: in vivo; details: 72 h, Rate 50 PPM spray on infested cabbage leaves until runoff, graded after 3 days at 26° C., count compared with untreated check
Procedure: as §1
The different 2,4-(substituted aromatic)-1,3-oxazoline compounds used on Myzus persicae were formulated as test spray solutions. To prepare the test spray solutions, 1 mg of each of the different 2,4-(substituted aromatic)-1,3-oxazoline compounds was dissolved into 1 mL of a 90:10 acetone:ethanol solvent. The resulting solution was added to 19 mL of water containing 0.05% Tween surfactant to produce different 50 PPM spray solutions. Cabbage leaves were […] with green peach aphid (all life stages) 16-20 hours prior to application of the different spray solutions. The different spray solutions were sprayed on both sides of each infested cabbage leaf with a sweeping action until runoff. The cabbage leaves were allowed to dry and were held for 3 days in a controlled room at 26° C. and 40% RH, after which time the test was graded. Grading was by actual count using a dissecting microscope and comparison of test counts to an untreated check. The average % mortality was then determined. In Table 1, “NT” means insecticidal activity was not tested for the 2,4-(substituted aromatic)-1,3-oxazoline compound at this rate.

C[C@@H]1OC(c2c(F)cccc2F)=N[C@@H]1c1ccc(-c2ccc(C(F)(F)F)cc2)cc1 (stereo in doubt) [(III)]
mortality at 400 ppm [1]: 100%
mortality at 50 ppm [2]: 32%

Cc1ccc(-c2ccc([C@@H]3N=C(c4c(F)cccc4F)O[C@H]3C)cc2)cc1C (stereo in doubt) [(IX)]
mortality at 400 ppm [1]: 60%
mortality at 50 ppm [2]: 0%

Cc1ccccc1C1=N[C@@H](c2ccc(-c3ccc(C(F)(F)F)cc3)cc2)[C@@H](C)O1 (stereo in doubt) [(X)]
mortality at 400 ppm [1]: 100%
mortality at 50 ppm [2]: 88%

Cc1ccccc1C1=N[C@@H](c2ccc(-c3ccc(OC(F)(F)F)cc3)cc2)[C@@H](C)O1 (stereo in doubt) [(XI)]
mortality at 400 ppm [1]: 100%
mortality at 50 ppm [2]: 71%

C[C@@H]1OC(c2c(F)cccc2Cl)=N[C@@H]1c1ccc(-c2ccc(OC(F)(F)F)cc2)cc1 (stereo in doubt) [(XII)]
mortality at 400 ppm [1]: 100%
mortality at 50 ppm [2]: 86%

CCOc1ccc(-c2ccc([C@H]3N=C(c4c(F)cccc4Cl)O[C@H]3C)cc2)cc1 (stereo in doubt) [(XIII)]
mortality at 400 ppm [1]: 100%
mortality at 50 ppm [2]: 82%

C[C@H]1OC(c2c(F)cccc2F)=N[C@H]1c1ccc(-c2ccc(OC(F)(F)F)cc2)cc1 (stereo in doubt) [(XVI)]
mortality at 400 ppm [1]: 100%
mortality at 50 ppm [2]: 95%

FC(F)(F)c1ccc(-c2ccc(C3COC(c4c(Cl)cncc4Cl)=N3)cc2)c(Cl)c1 (centres unmarked) [(I)]
mortality at 400 ppm [1]: 100%
mortality at 50 ppm [2]: 18%

Fc1cncc(F)c1C1=NC(c2ccc(-c3ccc(C(F)(F)F)cc3)cc2)CO1 (centres unmarked) [(II)]
mortality at 400 ppm [1]: 80%

Clc1cncc(Cl)c1C1=NC(c2ccc(-c3ccccc3)cc2)CO1 (centres unmarked) [(IV)]
mortality at 400 ppm [1]: 80%

Fc1ccc(C(F)(F)F)cc1-c1ccc(C2COC(c3c(Cl)cncc3Cl)=N2)cc1 (centres unmarked) [(V)]
mortality at 400 ppm [1]: 60%

Cc1cc(-c2ccc(C(F)(F)F)cc2)ccc1C1COC(c2c(Cl)cncc2Cl)=N1 (centres unmarked) [(VI)]
mortality at 400 ppm [1]: 100%
mortality at 50 ppm [2]: 20%

CCOc1ccc(-c2ccc(C3COC(c4c(Cl)cncc4Cl)=N3)c(C)c2)cc1 (centres unmarked) [(VII)]
mortality at 400 ppm [1]: 100%
mortality at 50 ppm [2]: 82%

Cc1cc(-c2ccc(OC(F)(F)F)cc2)ccc1C1COC(c2c(F)cccc2Cl)=N1 (centres unmarked) [(VIII)]
mortality at 400 ppm [1]: 100%
mortality at 50 ppm [2]: 66%

CCOc1ccc(-c2ccc(C3N=C(c4c(F)cccc4F)OC3(C)C)cc2)cc1 (centres unmarked) [(XIV)]
mortality at 400 ppm [1]: 60%
mortality at 50 ppm [2]: 40%

FC(F)(F)c1ccc(-c2ccc(C3COC(c4c(Cl)cncc4Cl)=N3)cc2)cc1 (centres unmarked) [(XV)]
mortality at 400 ppm [1]: 100%
mortality at 50 ppm [2]: 75%
